Bounds are passed on as bounds.

Data set [1] can be described thus: Hygroscopicity: water sorption/desorption in an automated water sorption analyser, 25 ℃. Type of data set: physicochemical.
Data set [2] is described as follows: Relative chemical stability of polymorph I over 4 weeks under storage (HPLC purity). In kind it is physicochemical. To be noted: for HPLC purity: week 0; for HPLC purity at 336 h / HPLC purity at 672 h: solid storage; for HPLC purity at 336 h: week 2; for HPLC purity at 672 h: week 4.
The test system of data set [3] is human neutrophils [인간 호중구]. The settings on record: through human endothelial cells and epithelial cells, e.g. human intestinal epithelial cell line T84; literature; cited from earlier work.

For `O=C(O)COC[C@H](O)[C@H](O)/C=C/C=C/C#C/C=C/[C@H](O)COc1ccc(F)cc1` [수화물, 2-((2S,3R,4E,6E,10E,12S)-13-(4-플루오로페녹시)-2,3,12-트리히드록시트리데카-4,6,10-트리엔-8-이닐옥시)아세트산], the “relative humidity at which transformation into polymorph I is observed” value in data set [1] (relative humidity, reversal of hydration) is below 40%.
In data set [2] (25 ℃, dry), `O=C(O)COC[C@H](O)[C@H](O)/C=C/C=C/C#C/C=C/[C@H](O)COc1ccc(F)cc1` [다형체 I, 2-((2S,3R,4E,6E,10E,12S)-13-(4-플루오로페녹시)-2,3,12-트리히드록시트리데카-4,6,10-트리엔-8-이닐옥시)아세트산] registered an HPLC purity of 97.36%, an HPLC purity at 336 h of 97.5% and an HPLC purity at 672 h of 97.5%. For the same molecule, in data set [2] (25 ℃/60%RH), the HPLC purity is given as 97.36%, the HPLC purity at 336 h turned out to be 97.5% and the HPLC purity at 672 h was 97.7%. In data set [2] (40 ℃, dry), the HPLC purity came to 97.36%, the HPLC purity at 336 h stood at 96.9% and the HPLC purity at 672 h came to 96.4%. In data set [2] (40 ℃/75%RH), the HPLC purity is reported as 97.36%, the HPLC purity at 336 h came out at 95.9% and the HPLC purity at 672 h turned out to be 92.5%. For the same molecule, in data set [1] (80% relative humidity, corresponds to the dihydrate of the substance), the moisture adsorbed is around 8%. Also, in data set [1] (in words), the hygroscopicity entry was “흡습성” and the reversibility of hydration result is “가역적”. For the same molecule, in data set [1] (relative humidity), the “relative humidity at which polymorph I transforms into the hydrate” value is reported as above 60%.
For `CCCCC[C@H](O)/C=C/C=C\C=C\C=C\[C@@H](O)[C@@H](O)CCCC(=O)O` [리폭신 A4], in data set [3], the “inhibition of transmigration of human neutrophils” value is recorded as “억제한다”.

The values are drawn from patent KR20110010755A, “결정질 2-((2s,3r,4e,6e,10e,12s)-13-(4-플루오로페녹시)-2,3,12-(트리히드록시트리데카-4,6,10-트리엔-8-이닐)옥시)아세트산의 무수물 및 수화물 형태” (바이엘 쉐링 파마 악티엔게젤샤프트, priority 2008, dated 2009).
